What was measured:
ZDF rats [1] = assay: Circulating TSH in ZDF rats treated 28 days; format: in vivo, rat; conditions: 50 mg/kg/d for 28 days
Text: Another concern with synthetic thyromimetics is the suppression of the endogenous thyroid axis. Thyroid homeostasis is maintained by the action of thyroid releasing hormone (TRH) and thyroid stimulating hormone (TSH). […] Although this particular side effect has been noted, it has typically been treated with less concern than the cardiac safety issues. […] Therefore previous investigators have measured TSH levels when testing synthetic thyromimetics and have used a 30% decrease of TSH as the denominator in their therapeutic index calculations. […] Therefore, both compounds suppress TSH as doses lower than that required to decrease circulating cholesterol. […] However, 0.2 mg/kg/d of Compound 18 in 28 day treated ZDF rats, decreased TSH levels greater than 90%.

ZDF rats [2] = assay: Liver triglycerides and liver histology in ZDF rats, oral 28 days; format: in vivo, rat
Procedure: In other experiments, Compound 7 was orally administered to ZDF rats for 28 days. Liver triglycerides were analyzed as described above. Total liver triglycerides were reduced in the treated animals 42% in the 2.5 mg/kg/d group. […] The hepatic steatosis is a well known and described phenomenon for the ZDF rat, and therefore not attributable to vehicle treatment.

[3] = Liver distribution following oral administration (liver levels of Compound 7 by LC-MS); format: in vivo, rat; conditions: levels of Compound 7 in liver, 10 mg/kg@1.5 h, normal rats
Procedure: Liver levels of Compound 7 were assessed in normal rats following oral administration of the HepDirect™ or other prodrugs. The levels were used to estimate potential efficacy. Liver levels were assessed by LC-MS using the 363.3/63.0 peak area to estimate levels of Compound 7 generated by orally administered prodrugs.

[4] = tested on: Hypercholesterolemic rats; assay: Cholesterol lowering in hypercholesterolemic (cholesterol-fed) rats; format: in vivo, rat
Procedure: Plasma cholesterol values were assessed prior to and following treatment and the effects of compound were expressed as a percentage change from the pre-dose cholesterol levels. […] Compounds were routinely tested for oral efficacy at a dose of 0.5 mg/kg/d. Hypercholesterolemic rats were treated with vehicle, Compound 13-1-cis (a HepDirect version of Compound 7), Compound 19-1 (a diethyl ester of Compound 19-2), Compound 13-9 (a HepDirect version of Compound 19-2), Compound 12-5 (a bisPom version of compound 19-2), or Compound 15-5 (a bisamidate version of Compound 19-2) at 0.5 mg/kg/d orally. Compound 13-1-cis has been extensively characterized and was used as the positive control for the assay.

isolated rat hepatocytes = assay: Activation of prodrug in isolated rat hepatocytes; format: in vitro ADME; conditions: active species in hepatocytes, 100 μM
Procedure: Method: Hepatocytes are prepared from fed Sprague-Dawley rats (250-300 g) according to the procedure of Berry and Friend (Berry, M. N., Friend, D. S. J. Cell Biol. 43, 506-520 (1969)) as modified by Groen (Groen, A. K. et al., Eur J. Biochem 122, 87-93 (1982)). Hepatocytes (60 mg wet weight/mL) are incubated in 1 mL Krebs-bicarbonate buffer containing 10 mM glucose, and 1 mg/mL BSA. Incubations are carried out in a 95% oxygen, 5% carbon dioxide atmosphere in closed, 50-mL Falcon tubes submerged in a rapidly shaking water bath (37° C.). Prodrugs are dissolved in DMSO to yield 10 mM stock solutions, and then diluted into the cell suspension to yield a final concentration of 100 μM. At appropriate time points over the course of 1 h, aliquots of the cell suspension are removed and spun through a silicon/mineral oil layer into 10% perchloric acid. The cell extracts in the acid layers are neutralized, and the intracellular prodrug metabolite content analyzed by reverse phase HPLC or LC-MS/MS (Example F). The AUC of the active species in the hepatocytes is calculated from the concentration-time profile of parent compound.

cholesterol-fed rat = assay: Subacute studies in cholesterol-fed rats, IP once-a-day for seven days: serum cholesterol, heart weight, heart GPDH
Procedure: The cholesterol-fed rat is an animal model of hypercholesterolemia generated by feeding the animals a diet with high cholesterol content.
Serum cholesterol values were assessed and the animals randomized into groups for treatment.

cholesterol fed rats = assay: Subacute studies in cholesterol fed rats, PO once a day for seven days: cholesterol reduction, heart weight; format: in vivo, rat; conditions: 0.6-50 mg/kg/day PO once a day for seven days
Procedure: Methods: […] Compound 13-1-cis and Compound 18 were administered PO once a day for seven days. Serum TSH is measured using an enzyme immunoassay (EIA) kit designed for rat TSH (Amersham Pharmacia Biotech, Arlington Heights, Ill.). Expression levels of liver genes (e.g., the LDL-receptor, apoB, cpt-1, spot14 and apoA1) and heart genes ([…]^2, Kv1.5, MHCα, MHCβ, Alpha1c) are quantified by Northern blot analysis or by RT-PCR. […] Oligonucleotides specific for the complementary gene sequences are used to make ^32P-labeled probes (Multiprime DNA labeling systems, Amersham Pharmacia Biotech). Following hybridization of the probes to the nylon membranes, radioactivity is assessed on a blue film (Eastman Kodak Co,), and the resulting image quantified using the appropriate software. RT-PCR is performed using an iCycler instrument (Biorad) using appropriate primers by means of standard methodology [[…] et al. (2000) Life Sciences 66: 1683-94]. […] The activities of PEPCK and glucose 6-phosphatase in liver are measured by means of direct enzymatic assays of homogenized liver tissue as described by Andrikopoulos S et al. (1993) Diabetes 42: 1731-1736. Alternatively, expression levels of the corresponding genes are determined by Northern blot analysis or RT-PCR as described above.

ZDF rats [5] = conditions: rat, in vivo, 28 days
Procedure: Compound 18 was administered at doses up to 5 mg/kg/d. Compound cis-13-1 was administered at doses up to 50 mg/kg/d. We reasoned that the ZDF rat, as a metabolically challenged animal model, would be more sensitive to the potential adverse cardiac effects of thyromimetics than a normal, cholesterol-fed rat. At sacrifice, heart rate, and the first derivative of left ventricular pressure (LV dP/dt) were measured with a Millar catheter inserted into the left ventricle.

Sprague Dawley (SD) rat = assay: Cardiovascular activity of T3 mimetics in the Sprague Dawley rat, oral 7 days; format: in vivo; conditions: SD rats, p.o. 7 days, Compound cis-13-1 1-50 mg/kg/day
Text: Method: […] The control group (n=6) was given vehicle only. […] On the 7th day after the start of dosing, animals were anesthetized with Isoflurane and the left ventricle cannulated with a high fidelity catheter tip transducer via the right carotid artery. Left ventricular pressure, its first derivative (LVdP/dt), lead I ECG, and heart rate (HR) triggered off the ECG waveform, were digitally recorded. LV dP/dt is a well accepted measure of ionotropic state. Systolic and diastolic aortic pressures were measured by retracting the catheter into the proximal aorta.

[6] = Compound 18 1 mg/kg, vs control
[7] = Compound 18 1 mg/kg, vs vehicle

TI Improvement, ED15 HR (ZDF rats [5])	SMILES	TSH (ZDF rats [1])	microvesicular steatosis (H&E liver histology) (ZDF rats [2])	Liver Levels [3]	efficacy in lowering cholesterol ([4]; another experiment, dose and route not given)	AUC (0-2 h) (isolated rat hepatocytes)	serum cholesterol (cholesterol-fed rat; 1-100 mg/kd/day, IP once-a-day for seven days)	therapeutic window (separation between cholesterol lowering and cardiac toxicity) (cholesterol-fed rat; cholesterol-fed rats)	cholesterol lowering ([4]; hypercholesterolemic rats, 0.5 mg/kg/d orally)	serum cholesterol (cholesterol fed rats)	Heart weight (Sprague Dawley (SD) rat; [6])	heart weight normalized to body weight (Sprague Dawley (SD) rat; [6])	HR (Sprague Dawley (SD) rat; [7])	LV dP/dt (Sprague Dawley (SD) rat; [7])	systolic aortic pressure (Sprague Dawley (SD) rat; [7])	diastolic aortic pressure (Sprague Dawley (SD) rat; vs vehicle)
–	Cc1cc(OCP(=O)(O)O)cc(C)c1Cc1ccc(O)c(C(C)C)c1 [Compound 7, [3,5-dimethyl-4-(4′-hydroxy-3′-iso-propylbenzyl)phenoxy]methylphosphonic Acid]	no statistically significant difference from vehicle	dose dependent reduction in the microvesicular steatosis	Not Detected	efficacous	1371 nmol·h/g	significantly decreased serum cholesterol	10- to 100 fold	–	–	–	–	–	–	–	–
>39	Cc1cc(OC[P@@]2(=O)OCC[C@@H](c3cccc(Cl)c3)O2)cc(C)c1Cc1ccc(O)c(C(C)C)c1 [Compound 13-1-cis, Cis (S)-2-[(3,5-Dimethyl-4-(4′-hydroxy-3′-iso-propylbenzyl)phenoxy)methyl]-4-(3-Chlorophenyl)-2-oxo-2λ^5-[1,3,2]-dioxaphosphinane]	–	–	–	–	–	–	–	significant lowering of cholesterol	significantly decreased serum cholesterol	no significant changes	no significant changes	not significantly different	not significantly different	not significantly different	not significantly different
